In patent US10179125B2, “Substituted pyridines as bromodomain inhibitors” (Zenith Epigenetics Ltd., priority 2014, dated 2019):
pIC50: −log10 of the molar value.

Experiments:
[1] = test system: cMYC; test: Inhibition of cMYC expression in MV4-11 cells (real-time PCR); type: cell-based, Human; details: Homo sapiens, 3 h, cMYC mRNA, read-out: c-myc activity
In short: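 MV4-11 cells (2.5×10^4/well) treated 3 h at 37° C with compound in IMDM/10% FBS, 0.1% DMSO vehicle, in triplicate. cMYC mRNA quantified by one-step TaqMan RT-qPCR, Ct normalised to cyclophilin; fold expression relative to DMSO control.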

[2] = test system: Human AML MV-4-11 cells; test: Inhibition of cell proliferation in MV4-11 cells (CellTiter Aqueous One); type: cell-based; details: Homo sapiens, 72 h
In short: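 MV4-11 cells (5×10^4/well) in IMDM + 10% FBS were treated with graded compound or 0.1% DMSO for 72 h at 37 °C, 5% CO2, in triplicate. CellTiter Aqueous One was added for 3–4 h and absorbance read at 490 nm. Background-corrected signal was expressed relative to DMSO and used to calculate IC50.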

[3] = test system: hApoA-I; test: Up-regulation of hApoA-1 mRNA transcription in Huh7 cells; type: cell-based; details: EC170, Huh7 cells, 48 h
Procedure: In this example, hApoA-I mRNA in tissue culture cells was quantitated to measure the transcriptional up-regulation of hApoA-I when treated with a compound of the present disclosure.
Huh7 cells (2.5×10^5 per well) were plated in a 96-well plate using 100 μL DMEM per well, (Gibco DMEM supplemented with penicillin/streptomycin and 10% FBS), 72 h before the addition of the compound. The cells are treated with increasing concentrations of the compound or […] (0.1%), and incubated at 37° C., 5% CO2 for 48 h. Spent media was removed from the Huh-7 cells and placed on ice for immediate use with the “LDH cytotoxicity assay Kit II” from Abcam. The cells remaining in the plate were rinsed with 100 μL PBS. Cells were harvested using the mRNA Catcher PLUS kit according to manufacturer's instructions. The eluted mRNA was then used in a one-step quantitative real-time PCR reaction, using components of the RNA UltraSense™ One-Step Kit (Life Technologies) together with Applied Biosystems TaqMan® primer-probes for hApoA-I and Cyclophilin. Real-time PCR plates were run on a ViiA™7 real time PCR machine (Applied Biosystems), data was analyzed, normalizing the Ct values for hApoA-1 to an internal control, prior to determining the fold induction of each unknown sample, relative to the control.

[4] = target: T1, Brd4 bromodomain 1 (BRD4(1)) (Homo sapiens, UniProt O60885); test: Inhibition of tetra-acetylated histone H4 binding to BET bromodomain (HTRF/FRET); details: His-tagged bromodomain 200 nM, biotinylated tetra-acetylated histone H4 peptide, 2 h room temperature
T1 construct: made in house; host or cells: E. coli BL21(DE3)
In short: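 His-tagged BRD4(1) (200 nM, E. coli-expressed) incubated with biotinylated tetra-acetylated histone H4 peptide (25-50 nM) plus Eu-cryptate streptavidin and XL665 anti-His, with compound (0.2% DMSO), 2 h at room temperature in HEPES pH 7.4 buffer. HTRF 665/620 nm ratio decrease gives IC50.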

[5] = test system: hIL-6; test: Inhibition of hIL-6 mRNA transcription in LPS-stimulated U937 cells; type: cell-based, Human; details: Homo sapiens, U-937, PMA-differentiated U937 cells, 1 h pretreatment, LPS 3 h, read-out: IL-6 activity
In short: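 U937 cells differentiated 3 days with 60 ng/mL PMA, pretreated 1 h with compound (0.1% DMSO), then stimulated with 1 ug/mL E. coli LPS for 3 h at 37 °C. IL-6 mRNA measured by one-step TaqMan qRT-PCR, normalized to cyclophilin; fold expression relative to control, triplicate wells.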

[6] = test system: hIL-17; test: Inhibition of hIL-17 mRNA transcription in OKT3-stimulated peripheral blood mononuclear cells; type: cell-based; details: human PBMC, OKT3 antibody 6 h, read-out: IL-17 activity
Procedure: Human peripheral blood mononuclear cells were plated (2.0×10^5 cells per well) in a 96-well plate in 45 μL OpTimizer T Cell expansion media (Life Technologies) containing 20 ng/ml IL-2 and penicillin/streptomycin. The cells were treated with increasing concentrations of the test compound or DMSO (0.1%), and incubated at 37° C., 5% CO2 for 1 h before addition of 10× stock OKT3 antibody at 10 ug/ml in media. Triplicate wells were used for each concentration, Cells were incubated at 37° C., 5% CO2 for 6 h before the cells were harvested. At time of harvest, cells were pelleted by centrifugation at 800 rpm for 5 min. Cells were harvested using the mRNA Catcher PLUS kit according to manufacturer's instructions. The eluted mRNA was then used in a one-step quantitative real-time PCR reaction, using components of the RNA UltraSense™ One-Step Kit (Life Technologies) together with Applied Biosystems TaqMan® primer-probes for hIL-17 and Cyclophilin. Real-time PCR plates were run on a ViiA™ 7 real time PCR machine (Applied Biosystems), data was analyzed, normalizing the Ct values for hIL-17 to an internal control, prior to determining the fold induction of each unknown sample, relative to the control.

| SMILES | pIC50 [1] | pIC50 [2] | ApoA-1 activity [3] | pIC50 [4] | pIC50 [5] | pIC50 [6] |
| --- | --- | --- | --- | --- | --- | --- |
| COc1ncc(-c2c(C)noc2C)cc1Nc1cccnc1 [Example 1, 5-(3,5-dimethylisoxazol-4-yl)-2-methoxy-N-(pyridin-3-yl)pyridin-3-amine] | 4.52 to 5.52 | 4.52 to 5.52 | ++ (EC170 value between 0.3 and 3 μM were deemed to be very active (++)) | 5.52 to 6.52 | 4.52 to 5.52 | – |
| COc1ncc(-c2c(C)noc2C)cc1NCc1ccccc1 [Example 2, N-benzyl-5-(3,5-dimethylisoxazol-4-yl)-2-methoxypyridin-3-amine] | 5.52 to 6.52 | 5.52 to 6.52 | ++ (EC170 value between 0.3 and 3 μM were deemed to be very active (++)) | ≥ 6.52 | 5.52 to 6.52 | 5.52 to 6.52 |
| COc1ncc(-c2c(C)noc2C)cc1NCc1ccsc1 [Example 9, 5-(3,5-dimethylisoxazol-4-yl)-2-methoxy-N-(thiophen-3-ylmethyl)pyridin-3-amine] | 5.52 to 6.52 | 5.52 to 6.52 | ++ (EC170 value between 0.3 and 3 μM were deemed to be very active (++)) | ≥ 6.52 | ≥ 6.52 | 5.52 to 6.52 |
| COc1ncc(-c2c(C)noc2C)cc1NCc1ccc(C#N)cc1 [Example 11, 4-(((5-(3,5-dimethylisoxazol-4-yl)-2-methoxypyridin-3-yl)amino)methyl)benzonitrile] | 5.52 to 6.52 | 4.52 to 5.52 | – | ≥ 6.52 | 5.52 to 6.52 | 5.52 to 6.52 |
| COc1ncc(-c2c(C)noc2C)cc1Nc1c(C)noc1C [Example 43, N-(5-(3,5-dimethylisoxazol-4-yl)-2-methoxypyridin-3-yl)-3,5-dimethylisoxazol-4-amine] | ≥ 6.52 | 5.52 to 6.52 | – | ≥ 6.52 | ≥ 6.52 | 5.52 to 6.52 |
| CNc1ncc(-c2c(C)noc2C)cc1NCc1ccccc1 [Example 45, N3-benzyl-5-(3,5-dimethylisoxazol-4-yl)-N2-methylpyridine-2,3-diamine] | 5.52 to 6.52 | 5.52 to 6.52 | – | ≥ 6.52 | ≥ 6.52 | 5.52 to 6.52 |
